In PubChem BioAssay AID1963853 (Molecular Pharmacology Branch, DTP, NCI, 2024):

System: 266295-075-R-J1-PDC spheroid viability
Experiment: Anticancer human tumor 266295-075-R-J1-PDC patient-derived head and neck squamous carcinoma cell line growth inhibition [POLQ]
Details: spheroids with HUVEC and MSC; for IC50: curve of first compound; for viability, T/C: stronger effect = lower value
Outline: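 Three-cell-type spheroids modelling solid tumor plus stroma served as the readout system; POL inhibitors were tested individually and in combination, concentration ranges set by clinical Cmax where known.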

[1] = second compound 0.0316 µM, first compound 0.0316 µM
[2] = second compound 0.0316 µM, first compound 0.1 µM
[3] = second compound 0.0316 µM, first compound 0.316 µM
[4] = second compound 0.0316 µM, first compound 1 µM
[5] = second compound 0.1 µM, first compound 0.0316 µM
[6] = second compound 0.1 µM, first compound 0.1 µM
[7] = second compound 0.1 µM, first compound 0.316 µM
[8] = second compound 0.1 µM, first compound 1 µM
[9] = second compound 0.316 µM, first compound 0.0316 µM
[10] = second compound 0.316 µM, first compound 0.1 µM
[11] = second compound 0.316 µM, first compound 0.316 µM
[12] = second compound 0.316 µM, first compound 1 µM
[13] = second compound 1 µM, first compound 0.0316 µM
[14] = second compound 1 µM, first compound 0.1 µM
[15] = second compound 1 µM, first compound 0.316 µM
[16] = second compound 1 µM, first compound 1 µM
[17] = second compound 3.16 µM, first compound 0.0316 µM
[18] = second compound 3.16 µM, first compound 0.1 µM
[19] = second compound 3.16 µM, first compound 0.316 µM
[20] = second compound 3.16 µM, first compound 1 µM
[21] = second compound 10 µM, first compound 0.0316 µM
[22] = second compound 10 µM, first compound 0.1 µM
[23] = second compound 10 µM, first compound 0.316 µM
[24] = second compound 10 µM, first compound 1 µM
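Also: spheroids exposed to compounds for seven days before readout.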

CC(C)n1c(=O)n(C)c2cnc3cc(F)c(-c4ccc(OCCCN5CCCCC5)nc4)cc3c21 + COC1C(OC(N)=O)C(O)C(Oc2ccc3c(O)c(NC(=O)c4ccc(O)c(CC=C(C)C)c4)c(=O)oc3c2C)OC1(C)C
IC50 (second compound 0.0316 µM): > 10 µM | IC50 (second compound 0.1 µM): > 10 µM | IC50 (second compound 0.316 µM): > 10 µM | IC50 (second compound 1 µM): > 10 µM | IC50 (second compound 3.16 µM): > 10 µM | IC50 (second compound 10 µM): > 10 µM | viability, T/C [1]: 102% | viability, T/C [2]: 86.7% | viability, T/C [3]: 97.2% | viability, T/C [4]: 93.8% | viability, T/C (second compound 0.0316 µM, first compound 3.16 µM): 83% | viability, T/C (second compound 0.0316 µM, first compound 10 µM): 72.2% | viability, T/C [5]: 105% | viability, T/C [6]: 95.5% | viability, T/C [7]: 90.3% | viability, T/C [8]: 96.5% | viability, T/C (second compound 0.1 µM, first compound 3.16 µM): 82.8% | viability, T/C (second compound 0.1 µM, first compound 10 µM): 74.5% | viability, T/C [9]: 103% | viability, T/C [10]: 114% | viability, T/C [11]: 90.7% | viability, T/C [12]: 100% | viability, T/C (second compound 0.316 µM, first compound 3.16 µM): 93.9% | viability, T/C (second compound 0.316 µM, first compound 10 µM): 57.2% | viability, T/C [13]: 121% | viability, T/C [14]: 99.5% | viability, T/C [15]: 91.8% | viability, T/C [16]: 86.3% | viability, T/C (second compound 1 µM, first compound 3.16 µM): 74.8% | viability, T/C (second compound 1 µM, first compound 10 µM): 77.7% | viability, T/C [17]: 92.8% | viability, T/C [18]: 85.2% | viability, T/C [19]: 101% | viability, T/C [20]: 78.9% | viability, T/C (second compound 3.16 µM, first compound 3.16 µM): 74.9% | viability, T/C (second compound 3.16 µM, first compound 10 µM): 66.2% | viability, T/C [21]: 124% | viability, T/C [22]: 88.4% | viability, T/C [23]: 78.3% | viability, T/C [24]: 78.5% | viability, T/C (second compound 10 µM, first compound 3.16 µM): 83.3% | viability, T/C (second compound 10 µM, first compound 10 µM): 66.3%

C=CCn1c(=O)c2cnc(Nc3ccc(N4CCN(C)CC4)cc3)nc2n1-c1cccc(C(C)(C)O)n1 + Nc1ccc(C#CCN(C(=O)Cc2ncc(C(F)(F)F)cc2C(F)(F)F)c2ccc(F)cc2)nn1
IC50 (second compound 0.0316 µM): > 1 µM | IC50 (second compound 0.1 µM): > 1 µM | IC50 (second compound 0.316 µM): > 1 µM | IC50 (second compound 1 µM): > 1 µM | IC50 (second compound 3.16 µM): > 1 µM | IC50 (second compound 10 µM): > 1 µM | viability, T/C (second compound 0.0316 µM, first compound 0.00316 µM): 102% | viability, T/C (second compound 0.0316 µM, first compound 0.01 µM): 90.4% | viability, T/C [1]: 101% | viability, T/C [2]: 89.2% | viability, T/C [3]: 86.2% | viability, T/C [4]: 63.8% | viability, T/C (second compound 0.1 µM, first compound 0.00316 µM): 114% | viability, T/C (second compound 0.1 µM, first compound 0.01 µM): 95.8% | viability, T/C [5]: 88.1% | viability, T/C [6]: 125% | viability, T/C [7]: 84.1% | viability, T/C [8]: 68.8% | viability, T/C (second compound 0.316 µM, first compound 0.00316 µM): 98.7% | viability, T/C (second compound 0.316 µM, first compound 0.01 µM): 99.1% | viability, T/C [9]: 84.1% | viability, T/C [10]: 85.2% | viability, T/C [11]: 69.3% | viability, T/C [12]: 65.3% | viability, T/C (second compound 1 µM, first compound 0.00316 µM): 93% | viability, T/C (second compound 1 µM, first compound 0.01 µM): 96.2% | viability, T/C [13]: 87.7% | viability, T/C [14]: 101% | viability, T/C [15]: 81.3% | viability, T/C [16]: 54.3% | viability, T/C (second compound 3.16 µM, first compound 0.00316 µM): 102% | viability, T/C (second compound 3.16 µM, first compound 0.01 µM): 106% | viability, T/C [17]: 85.2% | viability, T/C [18]: 77.3% | viability, T/C [19]: 72.4% | viability, T/C [20]: 63.5% | viability, T/C (second compound 10 µM, first compound 0.00316 µM): 115% | viability, T/C (second compound 10 µM, first compound 0.01 µM): 90.6% | viability, T/C [21]: 91.5% | viability, T/C [22]: 109% | viability, T/C [23]: 81.2% | viability, T/C [24]: 57.3%
